# In patent publication US10988466B2, “Heterocyclic derivatives useful as SHP2 inhibitors” (Jacobio Pharmaceuticals Co., Ltd., priority 2017, dated 2021):
# Where two headings read alike, the source gives them in different places.
# Experiments:
# MV-4-11 = assay: Cell proliferation assay (MTS/PMS); assay type: cell-based; details: Homo sapiens, MV4-11
# SHP2 = biological target: T1, SHP2 (Homo sapiens, UniProt Q06124); assay: biochemical; details: read-out: SHP2 inhibition (%)@0.1 μM;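 note: compounds preincubated 30 min at room temperature in the assay mixture, activity referenced to a 0.5% (v/v) DMSO control taken as 100%, run in triplicate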
# T1 sequence (Q06124 1-593): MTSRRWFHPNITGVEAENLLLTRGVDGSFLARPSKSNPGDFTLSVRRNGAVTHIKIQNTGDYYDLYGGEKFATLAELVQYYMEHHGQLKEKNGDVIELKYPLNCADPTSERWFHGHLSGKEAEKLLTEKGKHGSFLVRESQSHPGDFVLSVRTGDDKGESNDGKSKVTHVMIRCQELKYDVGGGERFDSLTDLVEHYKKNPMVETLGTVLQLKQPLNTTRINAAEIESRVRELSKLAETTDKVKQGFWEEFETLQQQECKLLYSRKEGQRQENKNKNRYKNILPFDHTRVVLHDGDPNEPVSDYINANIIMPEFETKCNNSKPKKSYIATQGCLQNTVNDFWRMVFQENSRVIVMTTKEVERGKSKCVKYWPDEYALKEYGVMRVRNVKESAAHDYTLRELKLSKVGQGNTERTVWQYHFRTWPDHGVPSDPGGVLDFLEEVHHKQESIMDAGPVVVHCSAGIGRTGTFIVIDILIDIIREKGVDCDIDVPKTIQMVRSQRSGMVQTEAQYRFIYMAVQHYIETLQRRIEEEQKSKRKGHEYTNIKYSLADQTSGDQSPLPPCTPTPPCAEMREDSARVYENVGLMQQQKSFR
# [1] = MV-4-11 cell proliferation, MTS/PMS readout at day 8, compounds added 24 hours after plating, read-out: IC50
Compound,IC50 (MV-4-11; [1]),inhibition at 0.1 µM (SHP2),IC50 (MV-4-11)
"COc1cccc2c1CC1(CCN(c3cnc(Sc4ccnc(N)c4Cl)c(N)n3)CC1)[C@@H]2N [Example 14, (S)-1′-(6-amino-5-((2-amino-3-chloropyridin-4-yl)thio)pyrazin-2-yl)-4-methoxy-1,3-dihydrospiro[2,4′-piperidin]-1-amine]",6 nM,82%,–
"Nc1nc(N2CCC3(CC2)Oc2ccccc2[C@H]3N)cnc1Sc1ccnc(N)c1Cl [Example 45, (R)-1′-(6-amino-5-((2-amino-3-chloropyridin-4-yl)thio)pyrazin-2-yl)-3H-spiro[benzofuran-2,4′-piperidin]-3-amine]",–,68%,2.5 nM
"Nc1nccc(Sc2cnc(N3CCC4(CC3)Oc3ccccc3[C@H]4N)cn2)c1Cl [Example 56, (R)-1′-(5-((2-amino-3-chloropyridin-4-yl)thio)pyrazin-2-yl)-3H-spiro[benzofuran-2,4′-piperidin]-3-amine]",10.4 nM,71%,–
"Nc1nc(N2CCC3(CC2)Cc2nc4ccccc4cc2[C@H]3N)cnc1Sc1ccnc(N)c1Cl [Example 64, (S)-1′-(6-amino-5-((2-amino-3-chloropyridin-4-yl)thio)pyrazin-2-yl)-1,3-dihydrospiro[cyclopenta [b]quinoline-2, 4′-piperidin]-1-amine]",8.1 nM,66%,–
"Nc1nccc(Sc2cnc(N3CCC4(CC3)Cc3nc(Cl)sc3[C@H]4N)cn2)c1Cl [Example 68, (S)-1′-(5-((2-amino-3-chloropyridin-4-yl)thio)pyrazin-2-yl)-2-chloro-4,6-dihydrospiro[cyclopenta [d]thiazole-5,4′-piperidin]-amine]",4.9 nM,82%,–
"Nc1nc(N2CCC3(CC2)Cc2nc(Cl)sc2[C@H]3N)cnc1Sc1ccnc(N)c1Cl [Example 69, (S)-1′-(6-amino-5-((2-amino-3-chloropyridin-4-yl)thio)pyrazin-2-yl)-2-chloro-4,6-dihydro-spiro[cyclopenta[d]thiazole-5,4′-piperidin]-6-amine]",4 nM,89%,–
"Nc1nccc(Sc2cnc(N3CCC4(CC3)Nc3ccccc3[C@H]4N)cn2)c1Cl [Example 71, (R)-1′-(5-((2-amino-3-chloropyridin-4-yl)thio)pyrazin-2-yl)spiro[indoline-2, 4′-piperidin]-3-amine]",13 nM,86%,–
"Nc1nc(N2CCC3(CC2)Cc2ncccc2[C@H]3N)cnc1Sc1ccnc2ccccc12 [Example 83, (S)-1′-(6-amino-5-(quinolin-4-yl-thio)pyrazin-2-yl)-5,7-dihydrospiro [cyclopenta[b]pyridine-6,4′-piperidin]-5-amine]",16 nM,91%,–
"Nc1nc(N2CCC3(CC2)Cc2ncccc2[C@H]3N)cnc1Sc1ccnc(N)c1F [Example 91, (S)-1′-(6-amino-5-((2-amino-3-fluoropyridin-4-yl)thio)pyrazin-2-yl)-5,7-dihydrospiro [cyclopenta [b]pyridine-6,4′-piperidin]-5-amine]",12 nM,88%,–
"Nc1nc(N2CCC3(CC2)Cc2ncccc2[C@H]3N)cnc1Sc1ccnc(Cl)c1Cl [Example 105, (S)-1′-(6-amino-5-((2,3-dichloro-pyridin-4-yl)thio)pyrazin-2-yl)-5,7-dihydrospiro[cyclo-penta[b]pyridine-6,4′-piperidin]-5-amine]",11 nM,–,–
"Nc1nccc(Sc2cnc(N3CCC4(CC3)Cc3sc(Cl)nc3C4N)cn2)c1Cl (stereo not shown) [Example 131, 1′-(5-((2-amino-3-chloropyridin-4-yl)thio)pyrazin-2-yl)-2-chloro-4,6-dihydrospiro [cyclopenta[d]thiazole-5,4′-piperidin]-4-amine]",–,83%,–
"Nc1nccc(Sc2cnc(N3CCC4(CC3)c3ccccc3CC4N)cn2)c1Cl (stereo not shown) [Example 132, 1′-(5-((2-amino-3-chloropyridin-4-yl)thio)pyrazin-2-yl)-2,3-dihydrospiro[indene-1,4′-piperidin]-2-amine]",–,78%,–
"N[C@@H]1c2ccccc2CC12CCN(c1cnc(Sc3ccnc(O)c3Cl)cn1)CC2 [Example 133, (S)-4-((5-(1-amino-1,3-dihydrospiro[indene-2,4′-piperidin]-1′-yl)pyrazin-2-yl)thio)-3-chloro pyridin-2-ol]",–,76%,–
"Nc1nc(N2CCC3(CC2)Cc2ccccc2[C@H]3N)cnc1Sc1ccnc(O)c1Cl [Example 134, (S)-4-((3-amino-5-(1-amino-1,3-dihydrospiro[indene-2,4′-piperidin]-1′-yl)pyrazin-2-yl)thio)-3-chloropyridin-2-ol]",–,78%,–
"N[C@@H]1c2cccnc2CC12CCN(c1cnc(Sc3ccnc(O)c3Cl)cn1)CC2 [Example 135, (S)-4-((5-(5-amino-5,7-dihydrospiro [cyclopenta[b]pyridine-6,4′-piperidin]-1′-yl)pyrazin-2-yl)thio)-3-chloropyridin-2-ol]",–,86%,–
"Nc1nc(N2CCC3(CC2)Cc2ncccc2[C@H]3N)cnc1Sc1ccnc(O)c1Cl [Example 136, (S)-4-((3-amino-5-(5-amino-5,7-dihydrospiro[cyclopenta[b]pyridine-6,4′-piperidin]-1′-yl)pyrazin-2-yl)thio)-3-chloropyridin-2-ol]",–,83%,–
"Nc1nc(N2CCC3(CC2)Cc2c(O)cccc2[C@H]3N)cnc1Sc1ccnc(N)c1Cl [Example 138, (S)-1-amino-1′-(6-amino-5-((2-amino-3-chloropyridin-4-yl)thio)pyrazin-2-yl)-1,3-dihydrospiro[indene-2,4′-piperidin]-4-ol]",–,82%,–
"Nc1nc(N2CCC3(CC2)Cn2ccc(=O)cc2C3N)cnc1Sc1ccnc(N)c1Cl (stereo not shown) [Example 140, 1-amino-1′-(6-amino-5-((2-amino-3-chloropyridin-4-yl)thio)pyrazin-2-yl)-3H-spiro[indolizine-2,4′-piperidin]-7(1H)-one]",–,14%,–
"Nc1nc(N2CCC3(CC2)Cn2c(cccc2=O)C3N)cnc1Sc1ccnc(N)c1Cl (stereo not shown) [Example 141, 1-amino-1′-(6-amino-5-((2-amino-3-chloropyridin-4-yl)thio)pyrazin-2-yl)-3H-spiro[indolizine-2,4′-piperidin]-5(1H)-one]",–,41%,–
"N=C1c2ccccc2CC12CCN(c1cnc(Sc3ccnc(N)c3Cl)c(N)n1)CC2 [Example 142, 3-((2-amino-3-chloropyridin-4-yl)thio)-6-(1-imino-1,3-dihydrospiro[indene-2,4′-piperidin]-1′-yl)pyrazin-2-amine]",–,17%,–
"COc1ccc2c(c1)CC1(CCN(c3cnc(Sc4ccnc(N)c4Cl)c(N)n3)CC1)C2=N [Example 143, 3-((2-amino-3-chloropyridin-4-yl)thio)-6-(1-imino-5-methoxy-1,3-dihydro-spiro[indene-2,4′-piperidin]-1′-yl)pyrazin-2-amine]",–,72%,–
"N=C1c2csc(Br)c2CC12CCN(c1cnc(Sc3ccnc(N)c3Cl)c(N)n1)CC2 [Example 145, 3-((2-amino-3-chloropyridin-4-yl)thio)-6-(1-bromo-4-imino-4H,6H-spiro [cyclopenta[c]thiophene-5,4′-piperidin]-1′-yl)pyrazin-2-amine]",–,79%,–
"COc1cccc2c1C(N)C1(CCN(c3cnc(Sc4ccnc(N)c4Cl)c(N)n3)CC1)C2 (stereo not shown) [Example 148, 1′-(6-amino-5-((2-amino-3-chloropyridin-4-yl)thio)pyrazin-2-yl)-7-methoxy-1,3-dihydrospiro[indene-2,4′-piperidin]-1-amine]",–,72%,–
"Nc1nc(N2CCC3(CC2)Cc2ccccc2/C3=N\O)cnc1Sc1ccnc(N)c1Cl [Example 149, (Z)-1′-(6-amino-5-((2-amino-3-chloropyridin-4-yl)thio)pyrazin-2-yl) spiro[indene-2,4′-piperidin]-1(3H)-one oxime]",–,28%,–
"Nc1nccc(Sc2cnc(N3CCC4(CC3)Cc3scnc3C4N)cn2)c1Cl (stereo not shown) [Example 154, 1′-(5-((2-amino-3-chloropyridin-4-yl)thio)pyrazin-2-yl)-4,6-dihydrospiro[cyclopenta[d]thiazole-5,4′-piperidin]-4-amine]",–,82%,–
"Nc1nc(N2CCC3(CC2)Cc2ccccc2[C@H]3N)cnc1Sc1cccc2[nH]cc(F)c12 [Example 157, (S)-1′-(6-amino-5-((3-fluoro-1H-indol-4-yl)thio)pyrazin-2-yl)-1,3-dihydrospiro[indene-2,4′-piperidin]-1-amine]",–,78%,–
"CC(=O)c1ccc2c(c1)[C@@H](N)C1(CCN(c3cnc(Sc4ccnc(N)c4Cl)c(N)n3)CC1)C2 [Example 158, (S)-1-(1-amino-1′-(6-amino-5-((2-amino-3-chloropyridin-4-yl)thio)pyrazin-2-yl)-1,3-dihydrospiro[indene-2,4′-piperidin]-6-yl)ethan-1-one]",–,90%,–
"CC(=O)c1cccc2c1CC1(CCN(c3cnc(Sc4ccnc(N)c4Cl)c(N)n3)CC1)[C@@H]2N [Example 159, (S)-1-(1-amino-1′-(6-amino-5-((2-amino-3-chloropyridin-4-yl)thio)pyrazin-2-yl)-1,3-dihydrospiro[indene-2,4′-piperidin]-4-yl)ethan-1-one]",–,88%,–
